Test results from paper PMC3516535, “Rhesus Macaque Theta Defensins Suppress Inflammatory Cytokines and Enhance Survival in Mouse Models of Bacteremic Sepsis” (PLoS ONE, 2012).
Bridge positions count the residues as written; N and C are the ends. Ends that are not written are not given here. Peptide text beside a SMILES is read from it.

Columns and labels:
[1] = tested on: human EDTA-anti-coagulated blood diluted 1∶10; test: TNF release assay in stimulated diluted whole blood (ELISA); format: cell-based; settings: 4 h; for anti-TNF effectiveness relative to RTD-1 / hierarchy of anti-TNF potencies: E. coli-stimulated blood, N = 2
[2] = tested on: THP-1 monocytic cells; test: TNF release assay in LPS-stimulated THP-1 monocytes (ELISA); format: cell-based, human; settings: 4 h, N = 2; for hierarchy of anti-TNF potencies: THP-1 in RPMI +5% human EDTA-plasma, 1 ng/ml K12 LPS
Experimental: THP-1 monocytic cells (ATCC, Manassas, VA) were grown and maintained in RPMI-1640 medium containing 10% fetal bovine serum and penicillin/streptomycin. Cells were harvested by centrifugation, washed with RPMI-1640 medium and suspended at 5×10^5 cells/ml in fresh medium containing 5% human EDTA plasma.
Peptides (RTDs 1–5, human neutrophil α-defensins) were aliquoted into wells of pyrogen-free 12- or 24-well plates wherein final peptide concentrations were 0–10 µg/ml. Wells were inoculated with 1×10^5 CFU/ml S. aureus or 100 CFU/ml E. coli, or 1–3 ng/ml of E. coli K12 LPS. Samples (5–10 µl) containing peptide or bacteria/LPS were placed on opposite sides of the plate well. Mixing commenced with the addition of 0.5 to 2.0 ml of 1∶10 diluted blood, PBLs (5×10^5/ml), or THP-1 cells (2–5×10^5 cells/ml). Plates were incubated at 37°C in 5% CO2 for 4 h with gentle mixing. […] Incubation mixtures were centrifuged at 200× g for 10 min at 22°C and supernatants were clarified by centrifugation at 23,000× g for 15 min at 4°C. Supernatant TNF was quantified by sandwich ELISA (OptEIA II; BD Biosciences; Hu TNF-α, Invitrogen) per suppliers’ directions, using a SpectraMax Plate Reader.

[3] = tested on: lethal bacteremia; settings: single systemic administration at time of bacterial challenge; cited from earlier work
Source text: The macrocyclic structure of θ-defensins confers remarkable stability. […] RTD-1 was also well-tolerated when administered intravenously or subcutaneously to mice, rats, and chimpanzees. Following repeated injections, neither of two chimpanzees produced anti-RTD-1 antibody. […] The discovery of antimicrobial peptides and their proven roles in host defense has prompted studies to evaluate dive ...

[4] = tested on: CLP sepsis; set-up: method as in PMID 12545019; settings: multiple doses; cited from earlier work

| Compound | anti-TNF effectiveness relative to RTD-1 [1] | hierarchy of anti-TNF potencies [1] | hierarchy of anti-TNF potencies [2] | also measured |
| --- | --- | --- | --- | --- |
| CC(C)C[C@@H]1NC(=O)[C@@H]2CSSC[C@H](NC(=O)[C@H](CCCNC(=N)N)NC(=O)[C@@H]3CSSC[C@H](NC1=O)C(=O)N[C@@H](CCCNC(=N)N)C(=O)N[C@@H](CCCNC(=N)N)C(=O)NCC(=O)N[C@@H](C(C)C)C(=O)N3)C(=O)N[C@@H](CC(C)C)C(=O)N[C@H]1CSSC[C@H](NC(=O)[C@H](C(C)C)NC(=O)CNC(=O)[C@H](CCCNC(=N)N)NC(=O)[C@H](CCCNC(=N)N)NC1=O)C(=O)N[C@@H](CCCNC(=N)N)C(=O)N2 [RTD-2] (cyclo(CLCRRGVCRCLCRRGVCR); disulfide 1-10, 3-8, 12-17) | substantially more effective than RTD-1 | RTD-5>2>1>4>3 | RTD-5>2>1>4>3 |  |
| CC[C@H](C)[C@@H]1NC(=O)[C@@H]2CSSC[C@H](NC(=O)[C@H](CCCNC(=N)N)NC(=O)[C@@H]3CSSC[C@H](NC1=O)C(=O)N[C@@H]([C@@H](C)O)C(=O)N[C@@H](CCCNC(=N)N)C(=O)NCC(=O)N[C@@H](Cc1ccccc1)C(=O)N3)C(=O)N[C@@H]([C@@H](C)CC)C(=O)N[C@H]1CSSC[C@H](NC(=O)[C@H](Cc3ccccc3)NC(=O)CNC(=O)[C@H](CCCNC(=N)N)NC(=O)[C@H]([C@@H](C)O)NC1=O)C(=O)N[C@@H](CCCNC(=N)N)C(=O)N2 [RTD-3] (cyclo(CICTRGFCRCICTRGFCR); disulfide 1-10, 3-8, 12-17) | less active | RTD-5>2>1>4>3 | RTD-5>2>1>4>3 |  |
| CC[C@H](C)[C@@H]1NC(=O)CNC(=O)[C@H](CC(C)C)NC(=O)[C@H](C(C)C)NC(=O)[C@@H]2CSSC[C@H](NC1=O)C(=O)N[C@@H](CCCNC(=N)N)C(=O)N[C@H]1CSSC[C@H](NC(=O)[C@H](CCCNC(=N)N)NC(=O)[C@@H]3CSSC[C@H](NC(=O)[C@H]([C@@H](C)CC)NC1=O)C(=O)N[C@@H]([C@@H](C)O)C(=O)N[C@@H](CCCNC(=N)N)C(=O)NCC(=O)N[C@@H](Cc1ccccc1)C(=O)N3)C(=O)N[C@@H]([C@@H](C)CC)C(=O)N2 [RTD-4] (cyclo(CICTRGFCRCICVLGICR); disulfide 1-10, 3-8, 12-17) | less active | RTD-5>2>1>4>3 | RTD-5>2>1>4>3 |  |
| CC[C@H](C)[C@@H]1NC(=O)CNC(=O)[C@H](CC(C)C)NC(=O)[C@H](C(C)C)NC(=O)[C@@H]2CSSC[C@H](NC1=O)C(=O)N[C@@H](CCCNC(=N)N)C(=O)N[C@H]1CSSC[C@H](NC(=O)[C@H](CCCNC(=N)N)NC(=O)[C@@H]3CSSC[C@H](NC(=O)[C@H]([C@@H](C)CC)NC1=O)C(=O)N[C@@H](CCCNC(=N)N)C(=O)N[C@@H](CCCNC(=N)N)C(=O)NCC(=O)N[C@@H](C(C)C)C(=O)N3)C(=O)N[C@@H]([C@@H](C)CC)C(=O)N2 [RTD-5] (cyclo(CICRRGVCRCICVLGICR); disulfide 1-10, 3-8, 12-17) | substantially more effective than RTD-1 | RTD-5>2>1>4>3 | RTD-5>2>1>4>3 |  |
| HNP-2: human neutrophil α-defensin purified from human neutrophils (CYCRIPACIAGERRYGTCIYQGRLWAFCC; ends and bridges not checked; cysteine pairing not given here; UniProt P59665 66-94, looked up) [reference compound] |  |  |  | effect on stimulated TNF release ([1]; E. coli-stimulated, 0–10 µg/ml peptide): no inhibitory effect; effect on stimulated TNF release ([2]; THP-1, 1 ng/ml K12 LPS): no inhibitory effect |
| LL-37: antimicrobial peptide derived from human cells (LLGDFFRKSKEKIGKEFKRIVQRIKDFLRNLVPRTES; Antibacterial peptide LL-37; UniProt P49913 134-170, looked up) |  |  |  | protection against lethal bacteremia [3]: Protection |
| PG-1: porcine protegrin (RGGRLCYCRRRFCVCVGR; ends and bridges not checked; cysteine pairing not given here; UniProt P32194 131-148, looked up) |  |  |  | endotoxin-neutralizing effect [4]: little endotoxin-neutralizing effect; therapeutic effect compared to vehicle control [4]: no therapeutic effect |
| indolicidin: antimicrobial peptide from ungulates (ILPWKWPWWPWRR; ends and bridges not checked; UniProt P33046 131-143, looked up) |  |  |  | protection against lethal bacteremia [3]: Protection |
